Experimental data from patent publication US11207301B2, “Sphingosine 1 phosphate receptor agonists for neuroprotection” (RECEPTOS LLC, priority 2017, dated 2021).

Tested on: relapsing multiple sclerosis (RMS) patients
Assay: Brain volume loss in phase 3 RMS studies SUNBEAM and RADIANCE Part B vs interferon beta-1a
Type: in vivo, human
Source text: As mentioned above, ozanimod is in clinical development for treatment of relapsing multiple sclerosis (RMS). Brain volume loss (BVL) correlates with and predicts disability and is thought to be a marker of long-term disease progression and cognitive impairment. Accordingly, reducing BVL is an important treatment goal. In this example, BVL results are reported from two similarly-designed phase 3 RMS studies.
SUNBEAM (N=1346) and RADIANCE Part B (N=1320) were randomised, double-blind, double-dummy, active-controlled, parallel-group studies of the efficacy (primary outcome annualised relapse rate) and safety of once-daily ozanimod 1 mg or 0.5 mg vs intramuscular interferon beta-1a (IFNβ-1a) 30 μg for ≥12 months (m) (SUNBEAM) or 24 m (RADIANCE). BVL was evaluated using the Jacobian integration method to assess changes in normalised whole brain, cortical grey matter, and thalamic volumes. Rank analysis of covariance was performed with treatment effects reported as percent reductions in median percent BVL from baseline.

[1] = RADIANCE (24 m), 1 mg once daily, p<0.0001
[2] = SUNBEAM (12 m), 1 mg once daily, p<0.0001

CC(C)Oc1ccc(-c2nc(-c3cccc4c3CC[C@@H]4NCCO)no2)cc1C#N [Ozanimod]
slowing of cortical grey matter loss with respect to IFN (RADIANCE (24 m), 0.5 mg once daily, p<0.0001): 55.1% | slowing of whole BVL vs IFN (RADIANCE (24 m), 0.5 mg once daily, p=0.0001): 24.5% | slowing of thalamic BVL vs IFN (RADIANCE (24 m), 0.5 mg once daily, p=0.0008): 30.1% | slowing of cortical grey matter loss with respect to IFN [1]: 58.3% | slowing of thalamic BVL vs IFN [1]: 31.9% | slowing of whole BVL vs IFN [1]: 26.6% | slowing of cortical grey matter loss with respect to IFN (SUNBEAM (12 m), 0.5 mg once daily, p<0.0001): 61.4% | slowing of thalamic BVL vs IFN (SUNBEAM (12 m), 0.5 mg once daily, p=0.0001): 34.3% | slowing of whole BVL vs IFN (SUNBEAM (12 m), 0.5 mg once daily, p=0.0615): 12.3% | slowing of cortical grey matter loss with respect to IFN [2]: 83.8% | slowing of thalamic BVL vs IFN [2]: 38.5% | slowing of whole BVL vs IFN [2]: 32.5%
